The values that follow come from patent US20250163104A1, “MACROCYCLIC IMMUNOMODULATORS” (priority 2021, published 2025).

*1 amine or outer side, *2 acyl side, *3 side chain or, on linkers, in order; H or OH if unused. Where a SMILES comes first, the peptide text is derived from it. Bridges are numbered along the chain shown (N, C = ends). [ ]: non-standard residue; d: D form. The star is where a group is joined. Bip = N[C@@H](Cc1ccc(-c2ccccc2)cc1)C(=O)O; Phe(3-Me) = Cc1cccc(C[C@H](N)C(=O)O)c1; γGlu = O=C(O)[C@H](CCC(=O)[*:2])N[*:1]; Cha = N[C@@H](CC1CCCCC1)C(=O)O; Carboxymethyl = O=C(O)C*; Orn = NCCC[C@H](N)C(=O)O; Pra = C#CC[C@H](N)C(=O)O; Dab = NCC[C@H](N)C(=O)O; Dap = NC[C@H](N)C(=O)O

The target in the experiment is T1, human PD-1 / PD-L1-Ig binding on Jurkat cell line over-expressing human PD-1 (Jurkat-PD-1) (Homo sapiens, UniProt Q15116).
T1 construct: expressed in transfected cells; host or cells: Jurkat
T1 sequence (Q15116 25-288): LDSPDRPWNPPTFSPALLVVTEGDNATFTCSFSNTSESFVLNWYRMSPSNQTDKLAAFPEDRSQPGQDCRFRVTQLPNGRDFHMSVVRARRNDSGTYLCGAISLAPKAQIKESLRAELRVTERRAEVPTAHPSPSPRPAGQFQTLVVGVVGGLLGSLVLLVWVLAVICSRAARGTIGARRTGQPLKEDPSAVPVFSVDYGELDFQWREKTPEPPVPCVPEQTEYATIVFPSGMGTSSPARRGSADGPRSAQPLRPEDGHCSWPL
Kind of experiment: Jurkat-PD-1 Cell Binding High-Content Screening Assay (CBA). It counts as cell-based. To be noted: Jurkat-PD-1 cells, PE-labeled PD-L1-Ig 20 nM final; read-out: Jurkat HPD1_PDL1 IC50. The gist of the method: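 PE-PD-L1-Ig 20 nM final; cells in DMEM/10% FCS; cpd pre-incubation 2 h, 37° C; ligand 1 h; PFA fix + Hoechst 33342; high-content imaging read-out.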
One may read the IC50 as the point on the concentration scale where inhibition reaches its midpoint. Turning to `Cc1cccc(C[C@@H]2NC(=O)[C@H](CC(=O)O)NC(=O)[C@H](Cc3ccc(OCC(=O)O)cc3)NC(=O)[C@H](CN)NC(=O)CSC[C@@H](C(N)=O)NC(=O)[C@H](CCC(=O)O)NC(=O)[C@H](C(C)C)NC(=O)[C@H](CC3CCCCC3)NC(=O)[C@H](CCN)NC(=O)[C@@H](CC(C)C)NC(=O)[C@H](CCCN)NC(=O)[C@H](Cc3ccc(OCC(=O)O)cc3)NC(=O)[C@H](Cc3ccc(-c4ccccc4)cc3)NC(=O)[C@H](Cc3ccc(OCC(=O)O)cc3)NC2=O)c1` [Compound 1784] ({CH2CO}-[Dap]Y(Carboxymethyl)D[Phe(3-Me)]Y(Carboxymethyl)[Bip]Y(Carboxymethyl)[Orn][dL][Dab][Cha]VEC-NH2; thioether N-14), the half-inhibitory concentration (IC50) was 0.0258 µM.
Take `Cc1cccc(C[C@@H]2NC(=O)[C@H](CC(=O)O)NC(=O)[C@H](Cc3ccc(OCC(=O)O)cc3)NC(=O)[C@H]([C@@H](C)O)NC(=O)CSC[C@@H](C(N)=O)NC(=O)[C@H](CC(N)=O)NC(=O)[C@H](C(C)C)NC(=O)[C@H](CC3CCCCC3)NC(=O)[C@H](CCN)NC(=O)[C@@H](CC(C)C)NC(=O)[C@H](CCCN)NC(=O)[C@H](Cc3ccc(OCC(=O)O)cc3)NC(=O)[C@H](Cc3ccc(-c4ccccc4)cc3)NC(=O)[C@H](Cc3ccc(OCC(=O)O)cc3)NC2=O)c1` [Compound 1797] ({CH2CO}-TY(Carboxymethyl)D[Phe(3-Me)]Y(Carboxymethyl)[Bip]Y(Carboxymethyl)[Orn][dL][Dab][Cha]VNC-NH2; thioether N-14): the IC50 is 0.0233 µM.
As for `Cc1cccc(C[C@@H]2NC(=O)[C@H](CC(=O)O)NC(=O)[C@H](Cc3ccc(OCC(=O)O)cc3)NC(=O)[C@H]([C@@H](C)O)NC(=O)CSC[C@@H](C(N)=O)NC(=O)[C@H](CC(=O)O)NC(=O)[C@H](C(C)C)NC(=O)[C@H](CC3CCCCC3)NC(=O)[C@H](CCN)NC(=O)[C@@H](CC(C)C)NC(=O)[C@H](CCCN)NC(=O)[C@H](Cc3ccc(OCC(=O)O)cc3)NC(=O)[C@H](Cc3ccc(-c4ccccc4)cc3)NC(=O)[C@H](Cc3ccc(OCC(=O)O)cc3)NC2=O)c1` [Compound 1798] ({CH2CO}-TY(Carboxymethyl)D[Phe(3-Me)]Y(Carboxymethyl)[Bip]Y(Carboxymethyl)[Orn][dL][Dab][Cha]VDC-NH2; thioether N-14), the figure is 0.0267 µM; as for `Cc1cccc(C[C@@H]2NC(=O)[C@H](CC(=O)O)NC(=O)[C@H](Cc3ccc(OCC(=O)O)cc3)NC(=O)[C@H]([C@@H](C)O)NC(=O)CSC[C@@H](C(N)=O)NC(=O)[C@H](CCC(N)=O)NC(=O)[C@H](C(C)C)NC(=O)[C@H](CC3CCCCC3)NC(=O)[C@H](CCN)NC(=O)[C@@H](CC(C)C)NC(=O)[C@H](CCCN)NC(=O)[C@H](Cc3ccc(OCC(=O)O)cc3)NC(=O)[C@H](Cc3ccc(-c4ccccc4)cc3)NC(=O)[C@H](Cc3ccc(OCC(=O)O)cc3)NC2=O)c1` [Compound 1799] ({CH2CO}-TY(Carboxymethyl)D[Phe(3-Me)]Y(Carboxymethyl)[Bip]Y(Carboxymethyl)[Orn][dL][Dab][Cha]VQC-NH2; thioether N-14), 0.0335 µM.
The value for `Cc1cccc(C[C@@H]2NC(=O)[C@H](CC(=O)O)NC(=O)[C@H](Cc3ccc(OCC(=O)O)cc3)NC(=O)[C@H]([C@@H](C)O)NC(=O)CSC[C@@H](C(N)=O)NC(=O)[C@H]([C@@H](C)O)NC(=O)[C@H](C(C)C)NC(=O)[C@H](CC3CCCCC3)NC(=O)[C@H](CCN)NC(=O)[C@@H](CC(C)C)NC(=O)[C@H](CCCN)NC(=O)[C@H](Cc3ccc(OCC(=O)O)cc3)NC(=O)[C@H](Cc3ccc(-c4ccccc4)cc3)NC(=O)[C@H](Cc3ccc(OCC(=O)O)cc3)NC2=O)c1` [Compound 1800] ({CH2CO}-TY(Carboxymethyl)D[Phe(3-Me)]Y(Carboxymethyl)[Bip]Y(Carboxymethyl)[Orn][dL][Dab][Cha]VTC-NH2; thioether N-14) was 0.0173 µM; that for `Cc1cccc(C[C@@H]2NC(=O)[C@H](CC(=O)O)NC(=O)[C@H](Cc3ccc(OCC(=O)O)cc3)NC(=O)[C@H]([C@@H](C)O)NC(=O)CSC[C@@H](C(N)=O)NC(=O)[C@H](CCC(=O)O)NC(=O)[C@H](C(C)C)NC(=O)[C@H](CC3CCCCC3)NC(=O)[C@H](CCN)NC(=O)[C@@H](CC(C)C)NC(=O)[C@H](CCCN)NC(=O)[C@H](Cc3ccc(OCC(=O)O)cc3)NC(=O)[C@H](Cc3ccc(-c4ccccc4)cc3)NC(=O)[C@H](Cc3ccc(OCC(=O)O)cc3)NC2=O)c1` [Compound 1801] ({CH2CO}-TY(Carboxymethyl)D[Phe(3-Me)]Y(Carboxymethyl)[Bip]Y(Carboxymethyl)[Orn][dL][Dab][Cha]VEC-NH2; thioether N-14) was 0.0844 µM.
As for `Cc1cccc(C[C@@H]2NC(=O)[C@H](CC(=O)O)NC(=O)[C@H](Cc3ccc(OCC(=O)O)cc3)NC(=O)[C@H]([C@@H](C)O)NC(=O)CSC[C@@H](C(N)=O)NC(=O)[C@H](CCCN)NC(=O)[C@H](C(C)C)NC(=O)[C@H](CC3CCCCC3)NC(=O)[C@H](CCN)NC(=O)[C@@H](CC(C)C)NC(=O)[C@H](CCCN)NC(=O)[C@H](Cc3ccc(OCC(=O)O)cc3)NC(=O)[C@H](Cc3ccc(-c4ccccc4)cc3)NC(=O)[C@H](Cc3ccc(OCC(=O)O)cc3)NC2=O)c1` [Compound 1802] ({CH2CO}-TY(Carboxymethyl)D[Phe(3-Me)]Y(Carboxymethyl)[Bip]Y(Carboxymethyl)[Orn][dL][Dab][Cha]V[Orn]C-NH2; thioether N-14), the figure is 0.0095 µM.
As for `C#CC[C@H](NC(=O)[C@H](CCC(=O)O)NC(=O)[C@@H]1CSCC(=O)N[C@@H](CN)C(=O)N[C@@H](Cc2ccc(OCC(=O)O)cc2)C(=O)N[C@@H](CC(=O)O)C(=O)N[C@@H](Cc2cccc(C)c2)C(=O)N[C@@H](Cc2ccc(OCC(=O)O)cc2)C(=O)N[C@@H](Cc2ccc(-c3ccccc3)cc2)C(=O)N[C@@H](Cc2ccc(OCC(=O)O)cc2)C(=O)N[C@@H](CCCN)C(=O)N[C@H](CC(C)C)C(=O)N[C@@H](CCN)C(=O)N[C@@H](CC2CCCCC2)C(=O)N[C@@H](C(C)C)C(=O)N[C@@H]([C@@H](C)O)C(=O)N1)C(N)=O` [Compound 1803] ({CH2CO}-[Dap]Y(Carboxymethyl)D[Phe(3-Me)]Y(Carboxymethyl)[Bip]Y(Carboxymethyl)[Orn][dL][Dab][Cha]VTCE[Pra]-NH2; thioether N-14), the IC50 was found to be 0.0247 µM.
The value for `C#CC[C@H](NC(=O)CC[C@H](NC(=O)[C@@H]1CSCC(=O)N[C@@H](CN)C(=O)N[C@@H](Cc2ccc(OCC(=O)O)cc2)C(=O)N[C@@H](CC(=O)O)C(=O)N[C@@H](Cc2cccc(C)c2)C(=O)N[C@@H](Cc2ccc(OCC(=O)O)cc2)C(=O)N[C@@H](Cc2ccc(-c3ccccc3)cc2)C(=O)N[C@@H](Cc2ccc(OCC(=O)O)cc2)C(=O)N[C@@H](CCCN)C(=O)N[C@H](CC(C)C)C(=O)N[C@@H](CCN)C(=O)N[C@@H](CC2CCCCC2)C(=O)N[C@@H](C(C)C)C(=O)N[C@@H]([C@@H](C)O)C(=O)N1)C(=O)O)C(N)=O` [Compound 1804] ({CH2CO}-[Dap]Y(Carboxymethyl)D[Phe(3-Me)]Y(Carboxymethyl)[Bip]Y(Carboxymethyl)[Orn][dL][Dab][Cha]VTC[γGlu][Pra]-NH2; thioether N-14) was 0.0066 µM.
